{
  "source": "patent US20220195383A1",
  "about": "“METHOD FOR PRODUCING PLURIPOTENT STEM CELLS” (KANEKA CORPORATION, priority 2019, published 2022)",
  "key": {"[1]": {"tested_on": "human iPS cell line RPChiPS771-2", "experiment": "Quantitative real-time PCR of marker genes after suspension culture with IWP-2", "assay_type": "cell-based", "conditions": "IWP-2 2 μM, line RPChiPS771-2, day 10 (Example 2)"}, "[2]": {"tested_on": "WNT3A protein", "experiment": "ELISA analysis of WNT3A protein in culture supernatant, suspension culture with IWP-2, line RPChiPS771-2", "assay_type": "cell-based, human", "conditions": "IWP-2 2 μM, line RPChiPS771-2, day 5 (Example 2)"}, "[3]": {"tested_on": "WNT3A protein", "experiment": "ELISA analysis of WNT3A protein in culture supernatant, suspension culture with IWP-2, line 201B7", "assay_type": "cell-based, human", "conditions": "IWP-2 2 μM, line 201B7, day 5 (Example 1)", "method": "A reagent and a reaction plate attached to a WNT3A ELISA kit (Aviva Systems Biology Corporation) were returned to room temperature. A vial of WNT3A Standard attached to the kit was subjected to centrifugal separation, and a powder in the vial was collected. After adding 1 mL of a diluent solution attached to the kit and mixing, the mixture was left to stand at room temperature for 15 minutes to prepare a WNT3A solution at a final concentration of 10 ng/mL. Based on the WNT3A solution at a final concentration of 10 ng/mL, the solution was diluted with the diluent solution attached to the kit to create WNT3A solution dilution series at final concentrations of 0.156 ng/mL, 0.313 ng/mL, 0.625 ng/mL, 1.25 ng/mL, 2.5 ng/mL, and 5 ng/mL. The dilution series of 0.156 ng/mL to 10 ng/mL and the culture supernatant on day 5 of the culture were added to the reaction plate at 100 μL/well, and a plate seal was attached. […]\nAbsorbance was measured at 450 nm (corrected wavelength 540 nm) using SpectraMax i3x Multi-Mode Detection Platform (Molecular Devices, LLC.), and a concentration of the WNT3A protein contained in the medium was calculated. Furthermore, an amount of the WNT3A protein of cells (pg/10^4 cells) was calculated from the results of measuring the number of living cells on day 5 of the culture according to the following equation. […]"}, "[4]": {"tested_on": "human iPS cell line 201B7", "experiment": "Quantitative real-time PCR of marker genes after suspension culture with IWP-2", "assay_type": "cell-based", "conditions": "IWP-2 2 μM, line 201B7, day 10 (Example 1)", "method": "Cells on day 10 of the culture were treated with Accutase for 3 to 10 minutes and dispersed into single cells by pipetting. These cells were lysed using TRIzol™ Reagent (Thermo Fisher Scientific K.K.). Total RNA was isolated and purified from a cell solution obtained by lysing with TRIzol™ Reagent using a PureLink (registered trademark) RNA Mini kit (Thermo Fisher Scientific K.K.). A concentration of the purified RNA was measured using BioSpec-nano (Shimadzu Corporation), and 40 ng was separated. 2 μL of ReverTra Ace (registered trademark) qPCR RT Master Mix (TOYOBO CO., LTD.) and RNase Free dH2O were added to the separated RNA to prepare 10 μL. cDNA synthesis was performed using SimpliAmp Thermal Cycler (Thermo Fisher Scientific K.K.). […] A synthesized cDNA solution was diluted 100-fold with 10 mM Tris-HCl pH 8.0 (NACALAI TESQUE, INC.) and added to a 384-well PCR plate (Thermo Fisher Scientific K.K.) at 5 μL/well. KOD SYBR® qPCR Mix (TOYOBO CO., LTD.), a Forward primer prepared to 50 μM, a Reverse primer prepared to 50 μM, and DEPC-treated water (NACALAI TESQUE, INC.) were mixed at a ratio of 100:1:1:48. This mixed solution was added to the above-mentioned 384-well PCR plate at 15 μL/well and mixed. For the primers, bACT, OCT4, SOX2, Nanog, Brachyury, and SOX17 were used. The 384-well PCR plate was subjected to centrifugal separation to remove air bubbles in the wells, and quantitative real-time PCR analysis was performed using QuantStudio 7 Flex Real-Time PCR System (Thermo Fisher Scientific K.K.).\nSuspension culture was performed under a condition in which an amount of WNT protein contained in a unit of a medium in contact with a unit area of a cell surface was maintained at 2.9×10^2 μg/mL·cm^2 or less. Specifically, the human iPS cell line 201B7 maintenance-cultured by the method in Step 1 of Example 1 was treated with Accutase for 3 to 5 minutes to release the cells from the dish. The cells were dispersed into single cells by pipetting. These cells were suspended in a StemFit (registered trademark) AK02N medium containing Y-27632 at a final concentration of 10 μM. A part of the cells was stained with trypan blue to measure the number of living cells. A cell suspension was prepared so that it contained 2×10^5 cells per mL using the StemFit (registered trademark) AK02N medium containing Y-27632 a final concentration of 10 μM. 4 mL of the cell suspension per well was seeded in a 6-well plate for suspension culture (Sumitomo Bakelite Co., Ltd.). IWP-2 (FUJIFILM Wako Pure Chemical Corporation), which is a WNT protein secretion inhibitor, was added to the seeded wells so that a final concentration was 2 μM. The plate in which the cells were seeded was gyrated on a rotary shaker (Optima Instruments) at a speed of 83 rpm so that a gyrating width (diameter) drew a circle of 25 mm along a horizontal plane, and suspension culture was performed at 37° C. in a 5% CO2 environment. The day when the cells were seeded was defined as day 0 of the culture. Passage was performed on day 5 of the culture, and suspension culture was performed until day 10 of the culture. Medium exchange was performed as follows. A total amount of the medium containing cell aggregates was recovered in a centrifuge tube and left to stand for about 5 minutes to precipitate the cell aggregates. Thereafter, the culture supernatant was removed. […]"}},
  "data": [
    {"smiles": "Cc1ccc2nc(NC(=O)CSc3nc4c(c(=O)n3-c3ccccc3)SCC4)sc2c1", "note": "[IWP-2]", "values": [
      {"measurement": "Relative gene expression level with respect to ACTB in 2 ^∧ Ct, Nanog", "setting": "[1]", "result": "8.16 × 10^−1"},
      {"measurement": "Relative gene expression level with respect to ACTB in 2 ^∧ Ct, OCT4", "setting": "[1]", "result": "5.72 × 10^−1"},
      {"measurement": "Relative gene expression level with respect to ACTB in 2 ^∧ Ct, SOX2", "setting": "[1]", "result": "2.31 × 10^−2"},
      {"measurement": "Relative gene expression level with respect to ACTB in 2 ^∧ Ct, Brachyury", "setting": "[1]; dash = not detected", "result": "not detected"},
      {"measurement": "Relative gene expression level with respect to ACTB in 2 ^∧ Ct, SOX17", "setting": "[1]; dash = not detected", "result": "not detected"},
      {"measurement": "Concentration of WNT3A protein contained in medium", "setting": "[2]", "result": 53.3, "unit": "pg/mL"},
      {"measurement": "Amount of WNT3A protein contained in unit of medium in contact with unit area of cell surface, average value (n = 10)", "setting": "[3]", "result": "2.7 × 10^2 μg/mL · cm^2"},
      {"measurement": "Concentration of WNT3A protein contained in medium", "setting": "[3]", "result": 83.9, "unit": "pg/mL"},
      {"measurement": "Relative gene expression level with respect to ACTB in 2 ^∧ Ct, Nanog", "setting": "[4]", "result": "1.30 × 10^−2"},
      {"measurement": "Relative gene expression level with respect to ACTB in 2 ^∧ Ct, OCT4", "setting": "[4]", "result": "1.77 × 10^−1"},
      {"measurement": "Relative gene expression level with respect to ACTB in 2 ^∧ Ct, SOX2", "setting": "[4]", "result": "2.83 × 10^−2"},
      {"measurement": "Relative gene expression level with respect to ACTB in 2 ^∧ Ct, Brachyury", "setting": "[4]; dash = not detected", "result": "not detected"},
      {"measurement": "Relative gene expression level with respect to ACTB in 2 ^∧ Ct, SOX17", "setting": "[4]; dash = not detected", "result": "not detected"}
    ]}
  ]
}
